Experimental findings from patent US6962933B1, “Method for inhibiting p38 MAP kinase or TNF-α production using a 1,3-thiazole” (Takeda Pharmaceutical Company Limited, priority 1999, dated 2005) are described below.

Usually melting point stands for the temperature, or range, at which the solid turns liquid.

The test system of one data set is TNF-α production. The experiment in a line: Inhibiting activity of TNF-α production in LPS-stimulated THP-1 cells (ELISA). In kind it is cell-based. The note with it: Homo sapiens, LPS 5 μg/mL, 4 hours, TNF-α in supernatant by ELISA, read-out: IC50 (concentration necessary for inhibiting TNF-α production by 50%). The procedure:
Measurement of inhibiting activity of TNF-α production
After THP-1 cells which had been cultured on PRMI 1640 medium (manufactured by Life Technologies, Inc.) containing 1% inactivated bovine fetal serum (manufactured by Life Technologies, Inc., U.S.A.) and 10 mM HEPES (pH 7.5) seeded on a 96-well plate to 1×10^5 cells/well, 1 μL test compound dissolved in DMSO was added. After incubation at 37° C. for 1 hour in a CO2 incubator, LPS (Wako Pure Chemicals) was added to the final concentration 5 μg/mL. After cultured at 37° C. for 4 hours in a CO2 incubator, the supernatant was obtained by centrifugation. The concentration of TNF-α in the supernatant was measured by ELISA (R&D Systems, Quantikine Kit). The concentration (IC50 value) of the test compound necessary for inhibiting TNF-α production by 50% was calculated using PRIMS 2.01 (Graphpad Software).

pIC50: −log10 of the molar value.

As to `CNc1nc(-c2ccc(OC)cc2)c(-c2ccncc2)s1` [Reference Example 13-16, N-methyl [4-(4-methoxyphenyl)-5-(4-pyridyl)-1,3-thiazol-2-yl]amine], the melting point was 177 to 178 °C. In the data set with TNF-α production, the pIC50 is 6.85.
Taken in the same sequence, the figures for `CNc1nc(-c2ccc(Cl)cc2)c(-c2ccncc2)s1` [Reference Example 13-70, N-methyl [4-(4-chlorophenyl)-5-(4-pyridyl)-1,3-thiazol-2-yl]amine] were 224 to 225 °C and 6.74.
In turn, `Cc1cccc(-c2nc(N)sc2-c2ccncc2)c1` [Reference Example 23-60, [4-(3-methylphenyl)-5-(4-pyridyl)-1,3-thiazol-2-yl]amine] came in with a melting point of 255 to 258 °C. Also, the pIC50 with TNF-α production is 7.34.
`Cc1cc(C)cc(-c2nc(NC(=O)c3ccc(C(=O)O)cc3)sc2-c2ccncc2)c1` [Reference Example 23-337, 4-[[[4-(3,5-dimethylphenyl)-5-(4-pyridyl)-1,3-thiazol-2-yl]amino]carbonyl]benzoic acid] returned a melting point of 347 to 349 °C.
`Cc1cc(C)cc(-c2nc(NC(=O)c3cccc(C(=O)O)c3)sc2-c2ccncc2)c1` [Reference Example 23-342, 3-[[[4-(3,5-dimethylphenyl)-5-(4-pyridyl)-1,3-thiazol-2-yl]amino]carbonyl]benzoic acid] showed a melting point of 350 to 353 °C.
Same read-out and setting: for `Fc1ccc(-c2nc(-c3ccccc3)sc2-c2ccncc2)cc1` [Reference Example 44-1, 4-(4-fluorophenyl)-2-phenyl-5-(4-pyridyl)-1,3-thiazole] the value was 135 to 137 °C; for `CSc1ccc(-c2nc(-c3cccc(C)c3)c(-c3ccncc3)s2)cc1` [Reference Example 44-7, methyl 4-[4-(3-methylphenyl)-5-(4-pyridyl)-1,3-thiazol-2-yl]phenylsulfide], 101 to 102 °C; for `Cc1cccc(-c2nc(-c3ccc([S+](C)[O-])cc3)sc2-c2ccncc2)c1` (centres unmarked) [Reference Example 44-8, methyl 4-[4-(3-methylphenyl)-5-(4-pyridyl)-1,3-thiazol-2-yl]phenylsulfoxide], 188 to 189 °C.
